Measurements taken from ChEMBL document CHEMBL1201862, “PubChem BioAssay data set” (2004).
Values joined by “and” are separate entries in the source; they are usually repeats but may differ in a detail not shown here. Identical values can stand only once. Active and inactive are the calls of the source.

Experiments:
Phospholipase D1 = molecular target: T1, Phospholipase D1 (Homo sapiens, UniProt Q13393); assay: PLD1 Cellular Concentration Response Study.; format: functional
T1 sequence (Q13393 whole entry): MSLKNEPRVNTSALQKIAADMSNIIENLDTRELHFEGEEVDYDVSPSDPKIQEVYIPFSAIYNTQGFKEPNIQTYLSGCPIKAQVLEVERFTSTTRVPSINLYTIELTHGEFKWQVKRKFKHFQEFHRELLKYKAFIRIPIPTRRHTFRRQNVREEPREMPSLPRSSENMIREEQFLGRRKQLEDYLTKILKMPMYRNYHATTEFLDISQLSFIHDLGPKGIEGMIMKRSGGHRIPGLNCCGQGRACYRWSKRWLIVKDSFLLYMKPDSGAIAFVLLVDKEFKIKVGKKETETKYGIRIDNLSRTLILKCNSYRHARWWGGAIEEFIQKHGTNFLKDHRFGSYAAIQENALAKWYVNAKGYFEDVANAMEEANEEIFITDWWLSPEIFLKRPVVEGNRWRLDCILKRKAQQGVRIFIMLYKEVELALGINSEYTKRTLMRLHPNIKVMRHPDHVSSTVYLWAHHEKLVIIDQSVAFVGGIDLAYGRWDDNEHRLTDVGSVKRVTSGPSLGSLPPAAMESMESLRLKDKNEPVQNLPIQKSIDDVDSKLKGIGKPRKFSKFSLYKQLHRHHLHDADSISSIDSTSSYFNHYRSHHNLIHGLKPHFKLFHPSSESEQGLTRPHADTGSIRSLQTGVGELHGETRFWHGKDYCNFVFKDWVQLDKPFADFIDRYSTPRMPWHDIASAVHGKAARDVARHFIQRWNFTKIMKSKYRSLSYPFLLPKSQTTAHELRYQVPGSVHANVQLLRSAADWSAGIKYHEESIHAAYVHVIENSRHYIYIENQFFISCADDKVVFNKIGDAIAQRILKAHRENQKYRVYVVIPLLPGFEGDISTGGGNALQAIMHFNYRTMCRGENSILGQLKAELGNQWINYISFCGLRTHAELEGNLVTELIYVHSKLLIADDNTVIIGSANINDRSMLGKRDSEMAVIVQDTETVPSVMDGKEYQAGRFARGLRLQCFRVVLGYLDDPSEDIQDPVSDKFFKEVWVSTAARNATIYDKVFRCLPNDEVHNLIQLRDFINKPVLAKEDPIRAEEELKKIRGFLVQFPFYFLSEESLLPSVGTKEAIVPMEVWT

Phospholipase D2 = Phospholipase D2 (Homo sapiens, UniProt O14939); assay: PLD2 Cellular Concentration Response Study.; format: functional
Sequence of Phospholipase D2 (O14939 whole entry): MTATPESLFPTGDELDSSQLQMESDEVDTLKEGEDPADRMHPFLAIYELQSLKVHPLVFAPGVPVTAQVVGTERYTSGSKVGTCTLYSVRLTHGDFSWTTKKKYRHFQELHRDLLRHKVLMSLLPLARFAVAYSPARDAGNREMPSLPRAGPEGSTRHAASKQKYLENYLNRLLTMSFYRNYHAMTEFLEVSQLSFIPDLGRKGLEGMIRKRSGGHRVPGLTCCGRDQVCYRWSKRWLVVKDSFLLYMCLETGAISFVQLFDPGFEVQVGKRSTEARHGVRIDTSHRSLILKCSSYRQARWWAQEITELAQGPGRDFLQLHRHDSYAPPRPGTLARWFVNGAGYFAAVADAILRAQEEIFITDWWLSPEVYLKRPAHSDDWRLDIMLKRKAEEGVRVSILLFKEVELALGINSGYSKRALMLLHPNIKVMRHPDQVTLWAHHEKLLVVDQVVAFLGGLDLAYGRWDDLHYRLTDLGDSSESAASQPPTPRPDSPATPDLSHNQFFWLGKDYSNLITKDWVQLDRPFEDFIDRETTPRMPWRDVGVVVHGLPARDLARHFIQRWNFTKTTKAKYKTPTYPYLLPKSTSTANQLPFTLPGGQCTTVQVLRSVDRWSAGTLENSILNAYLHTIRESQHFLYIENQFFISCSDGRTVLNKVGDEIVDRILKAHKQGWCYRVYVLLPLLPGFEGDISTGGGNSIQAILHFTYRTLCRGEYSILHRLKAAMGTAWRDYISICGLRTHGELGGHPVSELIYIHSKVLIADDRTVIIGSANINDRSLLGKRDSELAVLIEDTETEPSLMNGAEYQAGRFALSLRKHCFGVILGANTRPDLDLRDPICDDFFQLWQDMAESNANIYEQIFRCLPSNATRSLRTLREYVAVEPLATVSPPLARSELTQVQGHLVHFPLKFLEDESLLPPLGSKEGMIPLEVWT

ELAV-like protein 1 = ELAV-like protein 1 (Homo sapiens, UniProt Q15717); assay: Identify HuR specific inhibitors.; format: functional
Sequence of ELAV-like protein 1 (Q15717 whole entry): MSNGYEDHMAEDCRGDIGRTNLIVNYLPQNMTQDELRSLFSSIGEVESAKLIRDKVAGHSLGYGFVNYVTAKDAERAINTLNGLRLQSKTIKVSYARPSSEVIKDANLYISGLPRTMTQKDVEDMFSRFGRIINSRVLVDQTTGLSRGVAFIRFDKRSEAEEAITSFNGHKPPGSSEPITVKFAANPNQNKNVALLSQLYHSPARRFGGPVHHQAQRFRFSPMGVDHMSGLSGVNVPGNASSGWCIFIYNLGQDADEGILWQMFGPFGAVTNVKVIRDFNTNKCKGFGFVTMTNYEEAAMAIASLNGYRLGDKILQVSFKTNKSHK

Hexokinase HKDC1 = molecular target: T2, Hexokinase HKDC1 (Homo sapiens, UniProt Q2TB90); assay: HKDC1 hexokinase inhibitors, dose response, biochemical, W721R variant (AID 504729); format: functional
T2 sequence (Q2TB90 whole entry): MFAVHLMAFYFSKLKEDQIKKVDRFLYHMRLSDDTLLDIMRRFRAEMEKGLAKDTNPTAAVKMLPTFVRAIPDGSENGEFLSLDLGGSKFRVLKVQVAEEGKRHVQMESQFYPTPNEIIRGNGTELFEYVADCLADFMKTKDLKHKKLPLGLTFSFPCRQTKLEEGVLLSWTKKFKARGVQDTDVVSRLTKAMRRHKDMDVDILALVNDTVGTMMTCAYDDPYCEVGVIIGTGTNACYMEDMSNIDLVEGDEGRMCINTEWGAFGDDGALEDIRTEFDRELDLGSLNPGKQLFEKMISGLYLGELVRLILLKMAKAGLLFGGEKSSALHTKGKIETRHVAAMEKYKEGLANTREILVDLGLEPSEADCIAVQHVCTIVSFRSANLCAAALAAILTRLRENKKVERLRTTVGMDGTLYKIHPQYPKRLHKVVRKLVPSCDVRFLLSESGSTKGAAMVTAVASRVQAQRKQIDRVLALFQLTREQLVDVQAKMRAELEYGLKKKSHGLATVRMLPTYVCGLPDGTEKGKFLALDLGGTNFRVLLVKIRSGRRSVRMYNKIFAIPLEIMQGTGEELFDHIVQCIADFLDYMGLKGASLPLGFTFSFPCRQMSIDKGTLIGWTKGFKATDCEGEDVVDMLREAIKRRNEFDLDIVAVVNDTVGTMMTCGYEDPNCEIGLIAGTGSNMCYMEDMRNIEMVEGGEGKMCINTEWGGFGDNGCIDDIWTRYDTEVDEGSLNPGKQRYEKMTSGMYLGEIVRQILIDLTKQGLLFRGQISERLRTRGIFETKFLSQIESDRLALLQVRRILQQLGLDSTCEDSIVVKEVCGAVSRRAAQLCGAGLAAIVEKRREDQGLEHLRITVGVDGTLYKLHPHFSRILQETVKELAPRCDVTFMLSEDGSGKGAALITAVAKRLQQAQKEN

[1] = CEM21 cell cytotoxicity, dose response, cytotoxicity control, plate reader, dry powder (AID 687026); format: functional, cell-based
[2] = HIV Env cell-cell fusion inhibitors, dose response, HIV entry, plate reader, dry powder (AID 687023); format: functional, cell-based
[3] = luciferase signal loss, tTA control fusion, HeLa F-luc tTA cells, dry powder, counter-screen for HIV Env fusion inhibitor project, dose response (AID 687021); format: functional, cell-based
[4] = inhibitors of PGC1a acetylation in cells, dose response, cell-based, cherry-picked samples (AID 720514); format: functional;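 further: potency may reflect raised or lowered acetylation signal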
[5] = molecular target: Glutathione-S-transferase (Schistosoma japonicum, UniProt Q26513); assay: biotin-GST/anti-GST TR-FRET signal inhibitors, dose response, artefact control for Vif-APOBEC3G degradation inhibitor project, biochemical (AID 1117362); format: functional
Sequence of Glutathione-S-transferase (Q26513 whole entry): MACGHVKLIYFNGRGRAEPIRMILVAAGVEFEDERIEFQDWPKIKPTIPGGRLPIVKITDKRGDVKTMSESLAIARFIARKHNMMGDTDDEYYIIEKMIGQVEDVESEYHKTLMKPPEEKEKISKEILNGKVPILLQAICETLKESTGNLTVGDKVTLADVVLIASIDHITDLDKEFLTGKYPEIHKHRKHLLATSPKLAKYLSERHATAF

cells = conditions: HEK293
[6] = CTGF mRNA reduction under YAP1 overexpression, dose response, mechanism study for YAP1 pathway inhibitor project, DLD1 cells, RT-qPCR, cherry-pick (AID 1053127); format: functional, cell-based; conditions: DLD-1

Compound: O=C(NCCN1CCC2(CC1)C(=O)NCN2C(=O)C1CC1)c1ccc2ccccc2c1
- IC50 (Phospholipase D1): 3.1 µM (active)
- IC50 (Phospholipase D2): 0.44 µM (active)

Compound: COCC(=O)OC1CCn2c1nc1c2C(=O)C(C)=C(NC(C)=O)C1=O (stereo unspecified)
- IC50 (ELAV-like protein 1): 17.4 µM (inactive)
- IC50 (Hexokinase HKDC1): 2.18 µM (active)

Compound: CCOc1ccc(C)cc1S(=O)(=O)NCc1ccncc1
- AC50 [1]: > 70 µM (inactive)
- AC50 [2]: 4.69 µM (active) and 8.19 µM (active)
- AC50 [3]: > 70 µM (inactive)

Compound: CC(C)CC#Cc1ccc2c(c1)O[C@@H](CN(C)Cc1ccc3c(c1)OCO3)[C@H](C)CN([C@H](C)CO)S2(=O)=O
- AC50 [4]: 12.6 µM (active)

Compound: CC[n+]1ccc(C)c2cc(P(=O)(c3ccccc3)c3ccccc3)ccc21
- IC50 [5]: 9.73 µM (active)

Compound: COc1ccccc1OCCn1c(SC)nc2ccccc21
- AC50 (cells): 29.1 µM (active)

Compound: O=C(Nc1ccc(C(F)(F)F)cc1)Nc1ccc2c(c1)[C@H]1C[C@H](CC(=O)N3CCc4ccccc4C3)O[C@@H](CO)[C@H]1O2
- AC50 [6]: > 26 µM (inactive)
